Source: ChEMBL document CHEMBL5506033, “Brain-Penetrant Macrocycles: Design Considerations, Future Prospects, and Call for Papers” (J Med Chem, 2024)

How the values were obtained:
[1] = Half life in human; format: ADME
[2] = Oral bioavailability in human; format: ADME, organism-based; conditions: in vivo

## C[C@H]1Oc2cc(cnc2N)-c2c(nn(C)c2C#N)CN(C)C(=O)c2ccc(F)cc21 [LORLATINIB]
[1]
  half-life: ~25 h
[2]
  bioavailability: 81%
